We go through 14 compounds from article PMC8881077 (Journal of Enzyme Inhibition and Medicinal Chemistry, 2022).

SMILES strings stand for the structures.

Assay [1] has as its target T1, ratAChE (Rattus norvegicus, UniProt P37136).
T1 construct: AChE from 5% rat cortex homogenate or human erythrocytes (Sigma Co.); from tissue; host or cells: 5% rat cortex homogenate
T1 sequence (P37136 32-614): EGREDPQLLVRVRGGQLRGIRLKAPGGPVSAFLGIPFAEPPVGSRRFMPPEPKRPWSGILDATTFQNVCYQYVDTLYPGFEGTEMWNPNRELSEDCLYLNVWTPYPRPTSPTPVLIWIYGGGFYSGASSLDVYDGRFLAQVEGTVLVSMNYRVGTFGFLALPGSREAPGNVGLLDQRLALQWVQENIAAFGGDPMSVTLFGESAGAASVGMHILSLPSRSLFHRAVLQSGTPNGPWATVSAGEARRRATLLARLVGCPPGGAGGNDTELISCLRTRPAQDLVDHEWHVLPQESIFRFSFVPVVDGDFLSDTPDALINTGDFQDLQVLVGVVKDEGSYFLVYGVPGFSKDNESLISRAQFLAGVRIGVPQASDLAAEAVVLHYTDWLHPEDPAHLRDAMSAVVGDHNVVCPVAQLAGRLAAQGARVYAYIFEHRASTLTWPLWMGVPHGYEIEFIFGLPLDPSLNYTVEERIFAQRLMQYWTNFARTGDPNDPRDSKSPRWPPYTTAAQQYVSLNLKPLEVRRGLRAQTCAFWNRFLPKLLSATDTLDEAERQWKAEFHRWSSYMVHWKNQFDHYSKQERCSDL
Nature of the assay: biochemical. To be noted: for SI: Selectivity Index = IC50 (BuChE)/IC50 (AChE), rat enzymes; for IC50: from 5% rat cortex homogenate, read-out: IC50 ± SD ratAChE.
Description: (§1) The AChE and BuChE inhibitory activities of the synthesised compounds were evaluated using the Ellman assay with slight modification. AChE from 5% rat cortex homogenate or human erythrocytes (Sigma Co.). BuChE from rat serum or human serum (Sigma Co.).

In assay [2] the target is T2, ratBuChE (Rattus norvegicus, UniProt Q9JKC1).
T2 construct: BuChE from rat serum or human serum (Sigma Co.); from tissue; host or cells: rat serum
Description: ratBuChE inhibition, modified Ellman's method. It is filed as biochemical.
Description: as §1

The conditions of assay [3]: Trolox as standard.
Description: The skeleton compounds naringenin and apigenin were also evaluated for comparison purposes, and vitamin E analogue Trolox was used as a standard.
The antioxidant potency of target compounds was tested using an oxygen radical absorbance capacity fluorescein (ORAC-FL) assay.

T2 sequence (Q9JKC1 24-597): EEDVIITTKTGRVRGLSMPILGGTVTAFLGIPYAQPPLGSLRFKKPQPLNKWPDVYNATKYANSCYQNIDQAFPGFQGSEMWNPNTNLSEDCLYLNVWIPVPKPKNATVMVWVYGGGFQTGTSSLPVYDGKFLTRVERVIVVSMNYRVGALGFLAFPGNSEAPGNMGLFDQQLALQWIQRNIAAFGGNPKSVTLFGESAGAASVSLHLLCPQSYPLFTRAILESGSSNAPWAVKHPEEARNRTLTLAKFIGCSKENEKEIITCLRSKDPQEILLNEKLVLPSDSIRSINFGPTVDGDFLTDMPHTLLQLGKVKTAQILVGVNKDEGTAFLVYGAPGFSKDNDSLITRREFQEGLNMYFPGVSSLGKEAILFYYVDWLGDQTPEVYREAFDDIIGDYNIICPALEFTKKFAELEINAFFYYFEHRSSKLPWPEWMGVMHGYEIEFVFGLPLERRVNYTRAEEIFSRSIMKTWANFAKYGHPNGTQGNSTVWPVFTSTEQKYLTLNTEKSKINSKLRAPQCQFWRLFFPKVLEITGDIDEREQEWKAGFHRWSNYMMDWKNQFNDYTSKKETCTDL

The term IC50 denotes the midpoint of a concentration-inhibition curve. For the compound `O=c1cc(-c2ccc(OCCCN3CCc4ccccc4C3)cc2)oc2cc(OCCCN3CCc4ccccc4C3)cc(O)c12` [Compound 10a, 7–(3-(3,4-dihydroisoquinolin-2(1H)-yl)propoxy)-2–(4-(3–(3,4-dihydroisoquinolin-2(1H)-yl)propoxy)phenyl)-5-hydroxy-4H-chromen-4-one], in assay [1], the SI came out at 2.1 and the concentration for half-maximal inhibition (IC50) was 8.1 ± 0.27 µM. This compound also showed an IC50 in assay [2] of 16.8 ± 0.36 µM. Besides, the ORAC in assay [3] was 1.1 ± 0.01 μM of Trolox equivalent/μM of tested compound.

`CCN(CCCOc1ccc(-c2cc(=O)c3c(O)cc(OCCCN(CC)Cc4ccccc4)cc3o2)cc1)Cc1ccccc1` [Compound 10b, 7–(3-(benzyl(ethyl)amino)propoxy)-2–(4-(3-(benzyl(ethyl)amino)propoxy)phenyl)-5-hydroxy-4H-chromen-4-one] returned an SI in assay [1] of 4.3. The results for the half-maximal inhibitory concentration (IC50) in assay [1] and in assay [2] were 4.3 ± 0.38 µM and 18.6 ± 0.24 µM, respectively. Also, the ORAC in assay [3] was 1.0 ± 0.04 μM of Trolox equivalent/μM of tested compound.

For `O=c1cc(-c2ccc(OCCCN3CCC(Cc4ccccc4)CC3)cc2)oc2cc(OCCCN3CCC(Cc4ccccc4)CC3)cc(O)c12` [Compound 10c, 7–(3-(4-benzylpiperidin-1-yl)propoxy)-2–(4-(3–(4-benzylpiperidin-1-yl)propoxy)phenyl)-5-hydroxy-4H-chromen-4-one], in assay [1], the SI stood at 2.5 and the concentration for half-maximal inhibition (IC50) is 5.5 ± 0.17 µM. Besides, it took 13.6 ± 0.67 µM to reach half-maximal inhibition in assay [2] (IC50). The ORAC in assay [3] is reported as 1.2 ± 0.03 μM of Trolox equivalent/μM of tested compound.

Turning to `O=c1cc(-c2ccc(OCCCN3CCC(c4ccccc4)CC3)cc2)oc2cc(OCCCN3CCC(c4ccccc4)CC3)cc(O)c12` [Compound 10d, 5-hydroxy-7–(3-(4-phenylpiperidin-1-yl)propoxy)-2–(4-(3–(4-phenylpiperidin-1-yl)propoxy)phenyl)-4H-chromen-4-one], in assay [1], the SI turned out to be 2.4 and the 50% inhibitory concentration (IC50) was 6.4 ± 0.22 µM. This compound registered a half-maximal inhibitory concentration (IC50) in assay [2] of 15.1 ± 0.49 µM. For the same compound, the ORAC in assay [3] is listed as 1.1 ± 0.02 μM of Trolox equivalent/μM of tested compound.

Take `O=c1cc(-c2ccc(OCCCN3CCC(CCCc4ccccc4)CC3)cc2)oc2cc(OCCCN3CCC(CCCc4ccccc4)CC3)cc(O)c12` [Compound 10e, 5-hydroxy-7–(3-(4–(3-phenylpropyl)piperidin-1-yl)propoxy)-2–(4-(3–(4–(3-phenylpropyl)piperidin-1-yl)propoxy)phenyl)-4H-chromen-4-one]: the figures for the half-inhibitory concentration (IC50) in assay [1] and in assay [2] were 7.9 ± 0.26 µM and 13.8 ± 0.43 µM, respectively. In assay [3], the ORAC is recorded as 1.1 ± 0.02 μM of Trolox equivalent/μM of tested compound.

Regarding `CC1CC(C)CN(CCCOc2ccc(-c3cc(=O)c4c(O)cc(OCCCN5CC(C)CC(C)C5)cc4o3)cc2)C1` (stereo not drawn) [Compound 10f, 7–(3-(3,5-dimethylpiperidin-1-yl)propoxy)-2–(4-(3–(3,5-dimethylpiperidin-1-yl)propoxy)phenyl)-5-hydroxy-4H-chromen-4-one], in assay [1], the SI turned out to be 1.9 and the IC50 came to 8.6 ± 0.33 µM. Inhibition in assay [2] was half-maximal at 16.7 ± 0.52 µM (IC50). Also, the ORAC in assay [3] is 1.0 ± 0.04 μM of Trolox equivalent/μM of tested compound.

In assay [1], `O=c1cc(-c2ccc(OCCCCN3CCc4ccccc4C3)cc2)oc2cc(OCCCCN3CCc4ccccc4C3)cc(O)c12` [Compound 10g, 7–(4-(3,4-dihydroisoquinolin-2(1H)-yl)butoxy)-2–(4-(4–(3,4-dihydroisoquinolin-2(1H)-yl)butoxy)phenyl)-5-hydroxy-4H-chromen-4-one] showed an SI of 3.8. Moreover, the IC50 in assay [1] worked out at 4.6 ± 0.21 µM; in assay [2], 17.4 ± 0.35 µM. Besides, the ORAC in assay [3] is recorded as 1.2 ± 0.03 μM of Trolox equivalent/μM of tested compound.

As to `O=c1cc(-c2ccc(OCCCCN3CCN(Cc4ccccc4)CC3)cc2)oc2cc(OCCCCN3CCN(Cc4ccccc4)CC3)cc(O)c12` [Compound 10i, 7–(4-(4-Benzylpiperazin-1-yl)butoxy)-2–(4–(4-(4-benzylpiperazin-1-yl)butoxy)phenyl)-5-hydroxy-4H-chromen-4-one], the IC50 came out at 6.9 ± 0.14 µM in assay [1] and 10.3 ± 0.19 µM in assay [2]. The ORAC in assay [3] is given as 1.5 ± 0.02 μM of Trolox equivalent/μM of tested compound.

In the case of `O=c1cc(-c2ccc(OCCCCN3CCC(Cc4ccccc4)CC3)cc2)oc2cc(OCCCCN3CCC(Cc4ccccc4)CC3)cc(O)c12` [Compound 10j, 7–(4-(4-Benzylpiperidin-1-yl)butoxy)-2–(4–(4-(4-benzylpiperidin-1-yl)butoxy)phenyl)-5-hydroxy-4H-chromen-4-one], in assay [1], the SI is reported as 8.7 and the IC50 was determined as 1.8 ± 0.04 µM. For the same compound, the IC50 in assay [2] stood at 15.7 ± 0.24 µM. Also, the ORAC in assay [3] is 1.2 ± 0.03 μM of Trolox equivalent/μM of tested compound.

With `O=c1cc(-c2ccc(OCCCCCN3CCC(Cc4ccccc4)CC3)cc2)oc2cc(OCCCCCN3CCC(Cc4ccccc4)CC3)cc(O)c12` [Compound 10m, 7-((5–(4-benzylpiperidin-1-yl)pentyl)oxy)-2–(4-((5–(4-benzylpiperidin-1-yl)pentyl)oxy)phenyl)-5-hydroxy-4H-chromen-4-one], in assay [1], the SI was found to be 12.8. For the same compound, the IC50 came to 1.3 ± 0.08 µM in assay [1] and 16.6 ± 0.27 µM in assay [2]. In assay [3], the ORAC was 1.2 ± 0.02 μM of Trolox equivalent/μM of tested compound.

For the compound `O=c1cc(-c2ccc(OCCCCCN3CCC(c4ccccc4)CC3)cc2)oc2cc(OCCCCCN3CCC(c4ccccc4)CC3)cc(O)c12` [Compound 10n, 5-hydroxy-7-((5–(4-phenylpiperidin-1-yl)pentyl)oxy)-2–(4-((5–(4-phenylpiperidin-1-yl)pentyl)oxy)phenyl)-4H-chromen-4-one], in assay [1], the SI is listed as 4.9 and the IC50 stood at 3.6 ± 0.11 µM. For the same compound, the concentration for half-maximal inhibition (IC50) in assay [2] was found to be 17.9 ± 0.46 µM. Besides, in assay [3], the ORAC is on record as 1.1 ± 0.04 μM of Trolox equivalent/μM of tested compound.

For the compound `O=c1cc(-c2ccc(OCCCCCN3CCC(CCCc4ccccc4)CC3)cc2)oc2cc(OCCCCCN3CCC(CCCc4ccccc4)CC3)cc(O)c12` [Compound 10o, 5-hydroxy-7-((5–(4-(3-phenylpropyl)piperidin-1-yl)pentyl)oxy)-2–(4-((5–(4–(3-phenylpropyl)piperidin-1-yl)pentyl)oxy)phenyl)-4H-chromen-4-one], the SI in assay [1] was 3.9. Also, the IC50 came to 4.1 ± 0.63 µM in assay [1] and 16.1 ± 0.25 µM in assay [2]. Also, in assay [3], the ORAC is recorded as 1.2 ± 0.03 μM of Trolox equivalent/μM of tested compound.

Consider `CC1CC(C)CN(CCCCCOc2ccc(-c3cc(=O)c4c(O)cc(OCCCCCN5CC(C)CC(C)C5)cc4o3)cc2)C1` (stereo not drawn) [Compound 10p, 7-((5–(3,5-dimethylpiperidin-1-yl)pentyl)oxy)-2–(4-((5–(3,5-dimethylpiperidin-1-yl)pentyl)oxy)phenyl)-5-hydroxy-4H-chromen-4-one], for which, in assay [1], the SI is reported as 2.2 and the IC50 stood at 6.2 ± 0.54 µM. This compound also displayed a half-inhibitory concentration (IC50) in assay [2] of 13.8 ± 0.37 µM. Besides, the ORAC in assay [3] is 1.1 ± 0.02 μM of Trolox equivalent/μM of tested compound.

Regarding `O=c1cc(-c2ccc(OCCCCCCN3CCc4ccccc4C3)cc2)oc2cc(OCCCCCCN3CCc4ccccc4C3)cc(O)c12` [Compound 10q, 7-((6–(3,4-dihydroisoquinolin-2(1H)-yl)hexyl)oxy)-2–(4-((6–(3,4-dihydroisoquinolin-2(1H)-yl)hexyl)oxy)phenyl)-5-hydroxy-4H-chromen-4-one], in assay [1], the SI is on record as 2.9 and the IC50 was 4.2 ± 0.15 µM. In assay [2], this compound displayed a half-maximal inhibitory concentration (IC50) of 12.2 ± 0.28 µM. Further, the ORAC in assay [3] is 1.0 ± 0.02 μM of Trolox equivalent/μM of tested compound.
